According to PubChem BioAssay (NCI):
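Where inhibition never reached the appropriate level, the endpoint shown equals the highest concentration tested. Otherwise, values were interpolated linearly from a five-concentration, 48-hour dose response in 96-well plates. TGI is the concentration that stops growth completely.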 *1 amine or outer side, *2 acyl side, *3 side chain or, on linkers, in order; H or OH if unused. Where a SMILES comes first, the peptide text is derived from it. [ ]: non-standard residue; d: D form. X32 = C[C@H](N[*:1])C(=O)C(C)(C)C(=O)[*:2]; Hmpa(2S,3S) = CC[C@H](C)[C@H](O)C(=O)O; NMeY = CN[C@@H](Cc1ccc(O)cc1)C(=O)O; NMeL = CN[C@@H](CC(C)C)C(=O)O; NMeV = CN[C@H](C(=O)O)C(C)C; βAla = NCCC(=O)O

How the values were obtained:
Assay in all cases: DTP human tumour cell line panel, 48 h
TK-10 renal = tested on: TK-10 renal
DLD-1 colon = tested on: DLD-1 colon
SNB-78 CNS = tested on: SNB-78 CNS
CAKI-1 renal = tested on: CAKI-1 renal
DMS 114 small cell lung = tested on: DMS 114 small cell lung
HOP-18 NSCLC = tested on: HOP-18 NSCLC
UO-31 renal = tested on: UO-31 renal
OVCAR-4 ovarian = tested on: OVCAR-4 ovarian
UACC-62 melanoma = tested on: UACC-62 melanoma
OVCAR-3 ovarian = tested on: OVCAR-3 ovarian
DU-145 prostate = tested on: DU-145 prostate
NCI/ADR-RES ovarian = tested on: NCI/ADR-RES ovarian

| SMILES | TGI (TK-10 renal) | TGI (DLD-1 colon) | TGI (SNB-78 CNS) | TGI (CAKI-1 renal) | TGI (DMS 114 small cell lung) | TGI (HOP-18 NSCLC) | TGI (UO-31 renal) | TGI (OVCAR-4 ovarian) | TGI (UACC-62 melanoma) | TGI (OVCAR-3 ovarian) | TGI (DU-145 prostate) | TGI (NCI/ADR-RES ovarian) |
| --- | --- | --- | --- | --- | --- | --- | --- | --- | --- | --- | --- | --- |
| COc1ccc(-c2cc3[nH]nc(N)c3c(=O)o2)cc1 | > 100 µM | > 100 µM | > 100 µM | > 100 µM | > 100 µM | > 100 µM | > 100 µM | > 100 µM |  |  |  |  |
| Cn1cc2ccccc2c1-c1nc(F)nc(OCC(=O)[C@H]2CCC3[C@@H]4CCC5=CC(=O)CC[C@]5(C)C4[C@@H](O)C[C@@]32C)n1 (some centres not stated) | 47.9 µM | 22.5 µM | 47.3 µM | 14 µM | 22.5 µM | 29.2 µM | 37.8 µM | 29.6 µM | 36.7 µM | 33.2 µM |  |  |
| COC(=O)c1c2cccccc-2c(Cc2c3cccccc-3c(C(=O)OC)c2O)c1O | > 100 µM | > 100 µM | > 100 µM | > 100 µM | > 100 µM | > 100 µM | > 100 µM | > 100 µM | > 100 µM | > 100 µM |  |  |
| Nc1nc2c3nc(Nc4ccccc4)sc3nc(=O)n2c2sc(Nc3ccccc3)nc12 |  | > 100 µM | > 100 µM |  |  | > 100 µM | > 100 µM | > 100 µM | > 100 µM |  |  |  |
| CC(C)CC(NC(=O)OC(C)(C)C)C(=O)Nc1ccc(Nc2nc(F)nc(-c3c4ccccc4cn3C)n2)cc1 (configuration not stated) | > 100 µM | > 58 µM | > 68 µM | > 100 µM | > 72.4 µM | > 100 µM | > 100 µM | > 100 µM | > 100 µM | 63 µM | 39.7 µM | > 100 µM |
| CCN1CCC(O)(c2ccc(Cl)cc2)C(C(=O)c2ccc(Cl)cc2)C1 (configuration not stated) | > 100 µM | > 100 µM | > 100 µM |  |  | 95.9 µM | > 100 µM | > 100 µM | > 100 µM | > 100 µM |  |  |
| O=C1Oc2cc(O)cc(/C=C/c3ccc(O)cc3)c2[C@@]12c1c(O)cc(O)cc1OC2c1cccc(O)c1 (some centres not stated) | > 100 µM |  |  | > 100 µM |  |  | > 100 µM | > 100 µM | 68 µM | > 100 µM | > 100 µM | > 100 µM |
| CC(=O)OCC1OC(n2c(-c3ccc(C)cc3)cc(-c3ccccc3)c(C#N)c2=S)C(OC(C)=O)C(OC(C)=O)C1OC(C)=O (configuration not stated) | > 100 µM |  |  | > 100 µM |  |  | > 100 µM | > 100 µM | > 100 µM | > 100 µM | > 100 µM | > 100 µM |
| COC(=O)c1ccccc1C1CN=NC12Cc1cc(C)ccc1C2=O (configuration not stated) | > 100 µM |  |  | > 100 µM |  |  | > 100 µM | > 100 µM | > 100 µM | > 100 µM | > 100 µM | > 100 µM |
| Cc1cc2c([nH]c3ccccc32)c2c1OC(C)(C)C1C3CC(C)(C)Oc4c(C)cc5c6ccccc6n(c5c43)C21 (configuration not stated) | > 100 µM |  | > 100 µM | > 100 µM | > 100 µM | > 100 µM | > 100 µM | > 100 µM | > 100 µM | > 100 µM |  |  |
| CC[C@H](C)[C@@H]1OC(=O)CCNC(=O)[C@@H](C)NC(=O)C(C)(C)C(=O)[C@H](C)NC(=O)[C@H](Cc2ccc(OC)cc2)N(C)C(=O)[C@H](C(C)C)N(C)C(=O)CNC(=O)[C@H](CC(C)C)N(C)C(=O)CNC1=O (cyclo(G[NMeL]G[NMeV][NMeY](Me)[X32][dA][βAla][Hmpa(2S,3S)])) | 8 µM |  |  | 6.49 µM |  |  | 16 µM | 3.51 µM | > 50 µM | 14.3 µM | > 39.2 µM | > 50 µM |
| C(=C\c1ccco1)/c1cccc(/C=C/c2ccco2)n1 | > 50 µM |  |  | > 50 µM |  |  | > 50 µM | > 50 µM | > 50 µM | > 50 µM | > 50 µM | > 50 µM |
| N[C@H]1CCCC[C@@H]1N1C(=O)c2ccccc2C1(O)c1ccc(Cl)cc1 (some centres not stated) | 26 µM |  |  | 20.7 µM |  |  | 24.2 µM | 24.6 µM | 25.9 µM | 21.5 µM | 25.9 µM | 30.8 µM |
| O=C(NCCCCCCNC(=O)c1cc(-c2ccccc2)nc2ccccc12)c1cc(-c2ccccc2)nc2ccccc12 | > 100 µM |  |  | > 100 µM |  |  | > 100 µM | > 100 µM | > 100 µM | > 100 µM | > 100 µM | > 100 µM |
| CCCCCCCCCCCCCCCCCCN(C)CC(COP(=O)([O-])OCC[N+](C)(C)C)OC (configuration not stated) | 8.46 µM | 17.3 µM | 21.3 µM | 20.9 µM | 20.5 µM | 32.5 µM | 48.8 µM | 29.6 µM | 32.9 µM | 51.6 µM | > 100 µM | > 100 µM |
| Cc1ccc(S(=O)(=O)NNCNC(=O)c2ccccc2)cc1 | > 100 µM |  |  | > 100 µM |  |  | > 100 µM | > 100 µM | > 100 µM | > 100 µM | > 100 µM | > 100 µM |
| O=C1C(c2c(O)[nH]c3ccc(Br)cc23)=Nc2ccccc21 | 27.8 µM |  |  | 38.8 µM |  |  | 12.3 µM | 29.8 µM | 28 µM | 45.8 µM | 27.2 µM | > 100 µM |
